Test results as given in patent US11596622B2, “Mazindol treatment for heroin dependence and substance use disorder” (NLS Pharmaceutics AG, priority 2017, dated 2023).

Assays:
[1] = cited from earlier work
Sprague-Dawley rats = assay: Naloxone precipitated withdrawal syndrome of heroin; assay type: in vivo; details: for Abdominal constrictions score (Abd C) / Abnormal posture score (Ab P) / Chromodacryorrhea score (Chr) / Diarrhea score (Diarr) / Erection or ejaculation score (Er Ej) / Escape attempts score (Esc A) / Facial fasciculation or teeth chattering score (F F T C) / Global Score / Irritability score (Irrit) / Profuse salivation score (Pr Sal) / Ptosis score (Ptos) / Swallowing movements score (Sw M) / Weight loss score (W Los) / Wet dog shakes score (W D S): mean
Protocol: The abrupt cessation of chronic opiate use results in a well characterized withdrawal syndrome with symptoms that include pain sensitivity, dysphoria, irritability, restlessness, insomnia, diarrhea and hyperventilation. In the present model, the naloxone-precipitated withdrawal syndrome is measured in rodents. Animals are chronically treated with a drug, e.g. morphine or heroin. Opiate withdrawal syndrome is elicited by an acute injection of the opiate antagonist Naloxone.
The effect of mazindol on heroin withdrawal syndrome elicited by naloxone was examined in Sprague-Dawley rats using a method similar to the one used by Jiang et al. (10),
Animals were subdivided into two groups. One group received heroin two i.p. injections/day for 12 consecutive days and a single injection on the 13th day (total: 25 injections) as exposed in Table 3 group received saline instead of heroin following the same protocol.
On day 13, animals received treatments and were tested according to the following time schedule: • T=0: i.p. injection of heroin (15 mg/kg) or vehicle. • T=2.5 h: animals individually placed in a transparent Plexiglas observation boxes (40×40×40 cm). • T=3.5 h: i.p. injection of treatment (see below). • T=4 h: i.p. injection of naloxone (5 mg/kg), start of test: observation of withdrawal symptoms as indicated in Table 4. • T=5 h: end of test, animals placed back into their home cages.
Animals received the following treatments at T 3.5 h (i.e. 30 min before injection of naloxone and observation of symptoms): • 1) Animals treated with saline during the intoxication period (days 1-12) and at T0 on day 13: • Saline group (N=8): saline (0.9% NaCl). • 2) Animals treated with […] during the intoxication period (days 1-12) and at T0 on day 13: • Hero group (N=14): saline (0.9% NaCl). • Amph 1 group (N=4): D-amphetamine (1 mg/kg). • Maz 0.125 group (N=5): mazindol (0.125 mg/kg). • Maz 0.25 group (N=6): mazindol (0.25 mg/kg). • Maz 0.5 group (N=6): mazindol (0.5 mg/kg). • Maz 1 group (N=6): mazindol (1 mg/kg). • Maz 2 group (N=5): mazindol (2 mg/kg).
A weighting factor was ascribed for each sign from which a score was calculated.
Examples: • Body weight before naloxone injection=241 g; after naloxone injection=236 g: • Weight loss score=2=100×(241−236)/241 • Number of escape attempts=8: • Score for escape attempts=2 • Profuse salivation present: • Score for profuse salivation
A global withdrawal score was then calculated: • Global score=the sum of the scores

[2] = Maz 0.125: heroin-treated rats, mazindol 0.125 mg/kg i.p. 30 min before naloxone 5 mg/kg
[3] = Maz 0.25: heroin-treated rats, mazindol 0.25 mg/kg i.p. 30 min before naloxone 5 mg/kg
[4] = Maz 0.5: heroin-treated rats, mazindol 0.5 mg/kg i.p. 30 min before naloxone 5 mg/kg
[5] = Maz 1: heroin-treated rats, mazindol 1 mg/kg i.p. 30 min before naloxone 5 mg/kg
[6] = Maz 2: heroin-treated rats, mazindol 2 mg/kg i.p. 30 min before naloxone 5 mg/kg

OC1(c2ccc(Cl)cc2)c2ccccc2C2=NCCN21 (centres unmarked) [Mazindol, 5-(4-chlorophenyl)-2,5-dihydro-3 H-imadazo[2,1-a]isoindol-5-ol]
linearity of pharmacokinetics ([1]; between 1 mg/day and 4 mg/day, immediate release formulations): linear (independent of the dose)
half-life time ([1]; immediate release formulation, healthy volunteers (Kim 2009)): 9.1 ± 1.7 h
time to maximum concentrations (Tmax) ([1]; single or repeated oral administration, U.S. Pat. No. 8,293,779): 2 to 4 h
Abdominal constrictions score (Abd C) (Sprague-Dawley rats; [2]): 2.8
Abnormal posture score (Ab P) (Sprague-Dawley rats; [2]): 0.0
Chromodacryorrhea score (Chr) (Sprague-Dawley rats; [2]): 2.0
Diarrhea score (Diarr) (Sprague-Dawley rats; [2]): 0.8
Erection or ejaculation score (Er Ej) (Sprague-Dawley rats; [2]): 0.0
Escape attempts score (Esc A) (Sprague-Dawley rats; [2]): 1.0
Facial fasciculation or teeth chattering score (F F T C) (Sprague-Dawley rats; [2]): 1.6
Global Score (Sprague-Dawley rats; [2]): 13.2
Irritability score (Irrit) (Sprague-Dawley rats; [2]): 0.0
Profuse salivation score (Pr Sal) (Sprague-Dawley rats; [2]): 0.0
Ptosis score (Ptos) (Sprague-Dawley rats; [2]): 0.0
Swallowing movements score (Sw M) (Sprague-Dawley rats; [2]): 1.2
Weight loss score (W Los) (Sprague-Dawley rats; [2]): 1.0
Wet dog shakes score (W D S) (Sprague-Dawley rats; [2]): 2.8
Abdominal constrictions score (Abd C) (Sprague-Dawley rats; [3]): 0.0
Abnormal posture score (Ab P) (Sprague-Dawley rats; [3]): 0.0
Chromodacryorrhea score (Chr) (Sprague-Dawley rats; [3]): 0.8
Diarrhea score (Diarr) (Sprague-Dawley rats; [3]): 1.0
Erection or ejaculation score (Er Ej) (Sprague-Dawley rats; [3]): 0.0
Escape attempts score (Esc A) (Sprague-Dawley rats; [3]): 0.7
Facial fasciculation or teeth chattering score (F F T C) (Sprague-Dawley rats; [3]): 2.0
Global Score (Sprague-Dawley rats; [3]): 8.3
Irritability score (Irrit) (Sprague-Dawley rats; [3]): 0.0
Profuse salivation score (Pr Sal) (Sprague-Dawley rats; [3]): 0.0
Ptosis score (Ptos) (Sprague-Dawley rats; [3]): 0.0
Swallowing movements score (Sw M) (Sprague-Dawley rats; [3]): 1.0
Weight loss score (W Los) (Sprague-Dawley rats; [3]): 1.2
Wet dog shakes score (W D S) (Sprague-Dawley rats; [3]): 1.7
Abdominal constrictions score (Abd C) (Sprague-Dawley rats; [4]): 0.0
Abnormal posture score (Ab P) (Sprague-Dawley rats; [4]): 0.0
Chromodacryorrhea score (Chr) (Sprague-Dawley rats; [4]): 0.0
Diarrhea score (Diarr) (Sprague-Dawley rats; [4]): 1.0
Erection or ejaculation score (Er Ej) (Sprague-Dawley rats; [4]): 0.0
Escape attempts score (Esc A) (Sprague-Dawley rats; [4]): 1.7
Facial fasciculation or teeth chattering score (F F T C) (Sprague-Dawley rats; [4]): 2.0
Global Score (Sprague-Dawley rats; [4]): 9.7
Irritability score (Irrit) (Sprague-Dawley rats; [4]): 0.0
Profuse salivation score (Pr Sal) (Sprague-Dawley rats; [4]): 0.0
Ptosis score (Ptos) (Sprague-Dawley rats; [4]): 0.0
Swallowing movements score (Sw M) (Sprague-Dawley rats; [4]): 0.3
Weight loss score (W Los) (Sprague-Dawley rats; [4]): 1.7
Wet dog shakes score (W D S) (Sprague-Dawley rats; [4]): 3.0
Abdominal constrictions score (Abd C) (Sprague-Dawley rats; [5]): 0.0
Abnormal posture score (Ab P) (Sprague-Dawley rats; [5]): 0.0
Chromodacryorrhea score (Chr) (Sprague-Dawley rats; [5]): 1.7
Diarrhea score (Diarr) (Sprague-Dawley rats; [5]): 1.7
Erection or ejaculation score (Er Ej) (Sprague-Dawley rats; [5]): 0.5
Escape attempts score (Esc A) (Sprague-Dawley rats; [5]): 2.5
Facial fasciculation or teeth chattering score (F F T C) (Sprague-Dawley rats; [5]): 2.0
Global Score (Sprague-Dawley rats; [5]): 14.0
Irritability score (Irrit) (Sprague-Dawley rats; [5]): 0.0
Profuse salivation score (Pr Sal) (Sprague-Dawley rats; [5]): 1.2
Ptosis score (Ptos) (Sprague-Dawley rats; [5]): 0.0
Swallowing movements score (Sw M) (Sprague-Dawley rats; [5]): 0.3
Weight loss score (W Los) (Sprague-Dawley rats; [5]): 3.2
Wet dog shakes score (W D S) (Sprague-Dawley rats; [5]): 1.0
Abdominal constrictions score (Abd C) (Sprague-Dawley rats; [6]): 0.0
Abnormal posture score (Ab P) (Sprague-Dawley rats; [6]): 0.6
Chromodacryorrhea score (Chr) (Sprague-Dawley rats; [6]): 1.0
Diarrhea score (Diarr) (Sprague-Dawley rats; [6]): 2.0
Erection or ejaculation score (Er Ej) (Sprague-Dawley rats; [6]): 0.0
Escape attempts score (Esc A) (Sprague-Dawley rats; [6]): 1.6
Facial fasciculation or teeth chattering score (F F T C) (Sprague-Dawley rats; [6]): 0.4
Global Score (Sprague-Dawley rats; [6]): 10.4
Irritability score (Irrit) (Sprague-Dawley rats; [6]): 0.0
Profuse salivation score (Pr Sal) (Sprague-Dawley rats; [6]): 1.4
Ptosis score (Ptos) (Sprague-Dawley rats; [6]): 0.0
Swallowing movements score (Sw M) (Sprague-Dawley rats; [6]): 0.0
Weight loss score (W Los) (Sprague-Dawley rats; [6]): 3.0
Wet dog shakes score (W D S) (Sprague-Dawley rats; [6]): 0.4
effect on the score for escape attempt (Sprague-Dawley rats; mazindol 2 mg/kg): increased
effect on the scores for weight loss and diarrhea (Sprague-Dawley rats; mazindol 0.125-2 mg/kg): Did not significantly reduce
reduction of the global score (FIG. 4) (Sprague-Dawley rats; mazindol 0.125-2 mg/kg): significant at all doses except 0.125 mg/kg
reduction of the score for facial fasciculation or teeth chattering (FIG. 6) (Sprague-Dawley rats; mazindol 0.125-2 mg/kg): significant at 2 mg/kg
reduction of the score for profuse salivation (FIG. 6) (Sprague-Dawley rats; mazindol 0.125-2 mg/kg): significant at all doses except 2 mg/kg
reduction of the score for wet dog shake (FIG. 5) (Sprague-Dawley rats; mazindol 0.125-2 mg/kg): significant effect at 1 and 2 mg/kg
effect on naloxone precipitated withdrawal symptoms of heroin (Sprague-Dawley rats; mazindol, significant at 0.25, 0.5, 1 and 2 mg/kg, but not at 0.125 mg/kg): decreased the naloxone precipitated withdrawal symptoms of heroin
